# Data published in patent US20100204157A1, “USE OF A PEPTIDE AS A THERAPEUTIC AGENT” (priority 2007, published 2010).
# Where no end group is shown, it is not given here.
# Tests used:
# HepG2-2.2.15 cells = assay: Cell viability in HepG2-2.2.15 cells (dye uptake); assay type: cell-based; conditions: test peptide 10 micrograms per ml, dye uptake assay
# CEM-SS cells = assay: Cytotoxicity in CEM-SS cells (MTS); conditions: peptide 10 micrograms per ml, MTS
# HIV-1IIIB = assay: HIV-1 antiviral assay (CPE reduction, MTS); assay type: cell-based; conditions: peptide 10 micrograms per ml, 6 days post-infection
# MRC-5 cells = conditions: human, 6 days
# Protocol: (§1) For cytotxicity testing, MRC-5 cells were seeded at 2,500 cells/well in 96 well plates using growth medium. […] The following day, peptide were added and tested in duplicates. After a 6 days incubation period, cell viability was measured using CellTiter 96 Solution (Promega). Plates were incubated for additional 4 hours at 37° C.
# [1] = Cell viability in HepG2-2.2.15 cells (dye uptake); assay type: cell-based; conditions: human, HepG2-2.2.15 cells (stable line containing HBV ayw genome), test peptide 10 micrograms per ml, dye uptake assay
# MRSA = assay: Methicillin Resistant Staphylococcus Aureus (MRSA) assay; assay type: cell-based; conditions: MRSA growth; peptide 10 micrograms per ml; read visually
# Streptococcus pneumoniae = Streptococcus pneumoniae assay; assay type: cell-based; conditions: Streptococcus pneumoniae growth; peptide 10 micrograms per ml; read visually
# Protocol: The antibacterial assay was conducted using clear, U-bottom 96-well microtiter plates. Cation-adjusted Mueller-Hinton Broth (MHB) was used for testing Streptococcus pneumoniae. The peptide of the invention (0.1 ml of each—10 micrograms per ml—) were dispensed into wells in duplicate. Then the wells were inoculated with 5×10^5 CFU/mL Streptococcus pneumoniae in 0.1 ml volume. For control purposes, each plate included 4 wells containing media without bacterial inoculum and 4 wells containing medium with inoculum but without peptide. The plates were incubated for 12 h at 37° C., and read visually 18-24 hours post-incubation. Growth control of Streptococcus pneumoniae was examined first to determine adequacy of media preparations and growth conditions. Acceptable growth is defined as ≧2 mm wide button of cells at the bottom of each sample well, or obvious turbidity in the culture supernatant. Test wells were examined and scored as positive/negative for activity. A positive score for activity is based on complete inhibition of macroscopic growth of the test Streptococcus pneumoniae.
# Pseudomonas aeruginosa = Pseudomonas aeruginosa assay; assay type: cell-based; conditions: Pseudomonas aeruginosa growth; peptide 10 micrograms per ml; read visually
# Protocol: The antibacterial assay was conducted using clear, U-bottom 96-well microtiter plates. Cation-adjusted Mueller-Hinton Broth (MHB) was used for testing Pseudomonas aeruginosa. The peptide of the invention (0.1 ml of each—10 micrograms per ml—) were dispensed into wells in duplicate. Then the wells were inoculated with 5×10^5 CFU/mL Pseudomonas aeruginosa in 0.1 ml volume. For control purposes, each plate included 4 wells containing media without bacterial inoculum and 4 wells containing medium with inoculum but without peptide. The plates were incubated for 12 h at 37° C., and read visually 18-24 hours post-incubation. Growth control of Pseudomonas aeruginosa was examined first to determine adequacy of media preparations and growth conditions. Acceptable growth is defined as ≧2 mm wide button of cells at the bottom of each sample well, or obvious turbidity in the culture supernatant. Test wells were examined and scored as positive/negative for activity. A positive score for activity is based on complete inhibition of macroscopic growth of the test Pseudomonas aeruginosa.
# [2] = Cytotoxicity in CEM-SS cells (MTS); conditions: human
# [3] = Cytotoxicity in MRC-5 cells (CellTiter 96); conditions: human, MRC-5 cells (embryonal lung fibroblasts)
# Protocol: as §1
molecule,measurement,setting,value
"Nc1ccn([C@@H]2CS[C@H](CO)O2)c(=O)n1 [3TC, Lamivudine, reference compound]",% Cell Viability,HepG2-2.2.15 cells,95.8%
"Cc1cn([C@H]2C[C@H](N=[N+]=[N-])[C@@H](CO)O2)c(=O)[nH]c1=O [AZT, reference compound]",% Cell Viability,CEM-SS cells,97%
same,% CPE reduction in HIV-1 infected CEM-SS cells,HIV-1IIIB,99%
Nc1nc(O)c2ncn(COC(CO)CO)c2n1 [Ganciclovir],% Cell Viability,MRC-5 cells,100%
FFVAP [Phe-Phe-Val-Ala-Pro],"viability at 144 h, 10 micrograms per ml",[1],98.1%
same,% inhibition,MRSA,0.0%
same,% inhibition,Streptococcus pneumoniae,0.0%
same,% inhibition,Pseudomonas aeruginosa,0.0%
same,viability at 10 micrograms per ml,[2],100%
same,viability at 144 h,[3],100%
